# Test results taken from ChEMBL document CHEMBL1201862, “PubChem BioAssay data set” (2004).
#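 96-well plates; 48 h exposure; 5 concentrations. Endpoints by linear interpolation between flanking doses. Not reached: highest tested concentration assigned. Abbreviation: GI50, concentration required for 50% inhibition of growth.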 Active and inactive are the calls of the source. Cut-off read from the data, not from the text of the source: active = GI50 up to about 1.1 µM and inactive = higher.
# What was measured:
# Assay in all cases: NCI-60 cell line screen, 48 h
# LOX IMVI = tested on: LOX IMVI
# TK-10 = tested on: TK-10
# OVCAR-5 = tested on: OVCAR-5
# A498 = tested on: A498
# NCI-H460 = tested on: NCI-H460
# SK-MEL-28 = tested on: SK-MEL-28
# UACC-257 = tested on: UACC-257
# HCC 2998 = tested on: HCC 2998
# SF-295 = tested on: SF-295
# CAKI-1 = tested on: CAKI-1
# IGROV-1 = tested on: IGROV-1
# UACC-62 = tested on: UACC-62
# SK-MEL-5 = tested on: SK-MEL-5
# SF-268 = tested on: SF-268
# OVCAR-8 = tested on: OVCAR-8
# Hs-578T = tested on: Hs-578T
# SW-620 = tested on: SW-620
# ACHN = tested on: ACHN
# RPMI-8226 = tested on: RPMI-8226
SMILES,GI50 (LOX IMVI),GI50 (TK-10),GI50 (OVCAR-5),GI50 (A498),GI50 (NCI-H460),GI50 (SK-MEL-28),GI50 (UACC-257),GI50 (HCC 2998),GI50 (SF-295),GI50 (CAKI-1),GI50 (IGROV-1),GI50 (UACC-62),GI50 (SK-MEL-5),GI50 (SF-268),GI50 (OVCAR-8),GI50 (Hs-578T),GI50 (SW-620),GI50 (ACHN),GI50 (RPMI-8226)
O=C(O)C(O)C(O)C(O)C(O)CO.[Ba+2] (configuration not stated),> 100 µM (inactive),> 100 µM (inactive),> 100 µM (inactive),> 100 µM (inactive),> 100 µM (inactive),> 100 µM (inactive),> 100 µM (inactive),> 100 µM (inactive),> 100 µM (inactive),> 100 µM (inactive),> 100 µM (inactive),> 100 µM (inactive),> 100 µM (inactive),> 100 µM (inactive),> 100 µM (inactive),> 100 µM (inactive),> 100 µM (inactive),> 100 µM (inactive),> 100 µM (inactive)
C=C=C(CC1CCCCC1=O)S(=O)(=O)c1ccccc1 (configuration not stated),> 4.78 µM (inactive),> 10 µM (inactive),> 10 µM (inactive),> 10 µM (inactive),> 10 µM (inactive),> 10 µM (inactive),> 10 µM (inactive),> 8.71 µM (inactive),> 10 µM (inactive),> 10 µM (inactive),> 10 µM (inactive),> 5.12 µM (inactive),> 4.8 µM (inactive),> 10 µM (inactive),> 9.46 µM (inactive),> 10 µM (inactive),2.86 µM (inactive),> 10 µM (inactive),1.04 µM (active)
O=C(O)C1CCCCC1c1c2ccc(=O)cc-2oc2cc(O)ccc12 (configuration not stated),28.1 µM (inactive),52.1 µM (inactive),29.4 µM (inactive),37.8 µM (inactive),32.4 µM (inactive),35.6 µM (inactive),65.3 µM (inactive),31 µM (inactive),31.7 µM (inactive),31.8 µM (inactive),12.9 µM (inactive),25.9 µM (inactive),36.2 µM (inactive),33.7 µM (inactive),26.5 µM (inactive),34.8 µM (inactive),44.9 µM (inactive),31.8 µM (inactive),23 µM (inactive)
COC(=O)c1c(C)ccc2c(O)c3c(cc12)C(=O)c1c2c(cc(O)c1C3=O)C1(C)OC(C)(O2)C(O)C(N(C)C)C1O (configuration not stated),1.24 µM (inactive),1.4 µM (inactive),2.96 µM (inactive),1.57 µM (inactive),0.681 µM (active),4.37 µM (inactive),1.65 µM (inactive),0.532 µM (active),1.81 µM (inactive),1.91 µM (inactive),1.06 µM (active),1.66 µM (inactive),8.38 µM (inactive),1.05 µM (active),0.83 µM (active),1.86 µM (inactive),0.869 µM (active),1.23 µM (inactive),0.946 µM (active)
Oc1ccc2ccccc2c1/C=N/Cc1c(O)ccc2ccccc12,48.1 µM (inactive),70.5 µM (inactive),> 100 µM (inactive),26.1 µM (inactive),28.1 µM (inactive),> 100 µM (inactive),81.5 µM (inactive),42.2 µM (inactive),39.5 µM (inactive),87.7 µM (inactive),35.6 µM (inactive),45.1 µM (inactive),71.9 µM (inactive),37.2 µM (inactive),34.5 µM (inactive),69 µM (inactive),52.4 µM (inactive),28.4 µM (inactive),12.6 µM (inactive)
CN(NC(=O)/C(=C/c1ccc(O)cc1)NC(=O)c1ccccc1)c1ccnc2cc(Cl)ccc12,18.8 µM (inactive),15.5 µM (inactive),22.5 µM (inactive),18.2 µM (inactive),15.6 µM (inactive),19.9 µM (inactive),17.8 µM (inactive),18.1 µM (inactive),16.4 µM (inactive),19.3 µM (inactive),16.3 µM (inactive),17.1 µM (inactive),21 µM (inactive),15.1 µM (inactive),17.8 µM (inactive),19.2 µM (inactive),20.8 µM (inactive),18.3 µM (inactive),13.4 µM (inactive)
O=C(NCC1Nc2ccncc2S(=O)(=O)N1)c1ccc(Br)cc1 (configuration not stated),38.6 µM (inactive),> 100 µM (inactive),> 100 µM (inactive),> 100 µM (inactive),> 100 µM (inactive),92.5 µM (inactive),> 100 µM (inactive),51.9 µM (inactive),> 100 µM (inactive),> 100 µM (inactive),80.5 µM (inactive),58.7 µM (inactive),> 100 µM (inactive),27.4 µM (inactive),35.9 µM (inactive),32.2 µM (inactive),41.2 µM (inactive),> 100 µM (inactive),32.5 µM (inactive)
C=C1CC(c2ccc(OCCCN3C(=O)c4ccccc4C3=O)cc2)OC1=O (configuration not stated),1.36 µM (inactive),4.94 µM (inactive),11.4 µM (inactive),1.37 µM (inactive),2.07 µM (inactive),1.81 µM (inactive),2.19 µM (inactive),3.78 µM (inactive),10.5 µM (inactive),2.37 µM (inactive),1.06 µM (active),1.97 µM (inactive),6.64 µM (inactive),4.32 µM (inactive),2.71 µM (inactive),5.31 µM (inactive),1.48 µM (inactive),4.19 µM (inactive),1.12 µM (inactive)
Cn1cco/c1=N/c1ccc(Cl)c(Cl)c1,> 10 µM (inactive),> 10 µM (inactive),> 10 µM (inactive),> 10 µM (inactive),> 10 µM (inactive),> 10 µM (inactive),> 10 µM (inactive),> 10 µM (inactive),> 10 µM (inactive),> 10 µM (inactive),> 10 µM (inactive),> 10 µM (inactive),> 10 µM (inactive),> 10 µM (inactive),> 10 µM (inactive),> 10 µM (inactive),> 10 µM (inactive),> 10 µM (inactive),> 10 µM (inactive)
COC(=O)/C=C(\C(=O)OC)c1cc(C)c2cc(C(C)C)ccc(C)c1-2,45.2 µM (inactive),83.9 µM (inactive),> 100 µM (inactive),> 100 µM (inactive),40.7 µM (inactive),> 100 µM (inactive),–,28 µM (inactive),41.7 µM (inactive),47.9 µM (inactive),85.9 µM (inactive),32.2 µM (inactive),25.6 µM (inactive),> 100 µM (inactive),55.1 µM (inactive),42.7 µM (inactive),34 µM (inactive),25.6 µM (inactive),> 100 µM (inactive)
COc1ccc(/N=C2\C(=O)Nc3ccc(Br)cc32)cc1,10.1 µM (inactive),23.6 µM (inactive),23.2 µM (inactive),38.8 µM (inactive),21.8 µM (inactive),31.3 µM (inactive),20.7 µM (inactive),19.2 µM (inactive),22.8 µM (inactive),14.4 µM (inactive),–,4.89 µM (inactive),11.2 µM (inactive),18.4 µM (inactive),14.9 µM (inactive),41.5 µM (inactive),16 µM (inactive),15.4 µM (inactive),5.83 µM (inactive)
CC[S+]([O-])C(=O)N(O)c1ccc(Cl)cc1 (configuration not stated),11.7 µM (inactive),35.8 µM (inactive),17.7 µM (inactive),56.4 µM (inactive),–,17.4 µM (inactive),23.2 µM (inactive),43.3 µM (inactive),85.7 µM (inactive),17.7 µM (inactive),–,8.55 µM (inactive),26.4 µM (inactive),20.8 µM (inactive),–,41.2 µM (inactive),18 µM (inactive),11.1 µM (inactive),1.24 µM (inactive)
CN1C(=O)C(=CNc2ccc(Cl)cc2Cl)C(=O)N(C)C1=O,> 100 µM (inactive),> 100 µM (inactive),> 100 µM (inactive),> 100 µM (inactive),> 100 µM (inactive),–,> 100 µM (inactive),> 100 µM (inactive),> 100 µM (inactive),> 100 µM (inactive),> 100 µM (inactive),> 100 µM (inactive),> 100 µM (inactive),> 100 µM (inactive),17.9 µM (inactive),> 100 µM (inactive),> 100 µM (inactive),> 100 µM (inactive),> 100 µM (inactive)
O=C(CC(C(=O)c1ccsc1)c1ccsc1)c1ccsc1 (configuration not stated),79.8 µM (inactive),> 100 µM (inactive),–,> 100 µM (inactive),60 µM (inactive),82.8 µM (inactive),58.2 µM (inactive),> 100 µM (inactive),73.6 µM (inactive),> 100 µM (inactive),> 100 µM (inactive),74.8 µM (inactive),43.5 µM (inactive),> 100 µM (inactive),> 100 µM (inactive),> 100 µM (inactive),> 100 µM (inactive),> 100 µM (inactive),33.5 µM (inactive)
CC1(C)CC[C@]2(C)CC=C3[C@]4(C)CC[C@H]5C(C)(C)C(=O)CC[C@]5(C)[C@H]4CC[C@@]3(C)[C@H]2C1,> 100 µM (inactive),> 100 µM (inactive),> 100 µM (inactive),> 100 µM (inactive),–,> 100 µM (inactive),> 100 µM (inactive),> 100 µM (inactive),> 100 µM (inactive),> 100 µM (inactive),> 100 µM (inactive),> 100 µM (inactive),> 100 µM (inactive),> 100 µM (inactive),> 100 µM (inactive),> 100 µM (inactive),> 100 µM (inactive),> 100 µM (inactive),> 100 µM (inactive)
